# Where two headings read alike, the source gives them in different places.
# How the values were obtained:
# [1] = system: VX2 adenocarcinoma; details: in vitro; cited from earlier work
# [2] = MTX level in eye, microcapsules in pars plana (EMIT); format: in vivo, rabbit; details: for Drug level, LE PC: left eye, posterior chamber, microcapsule in one eye only
# [3] = MTX level in eye, plaque in pars plana (EMIT); format: in vivo, rabbit; details: for Drug level, LE PC: left eye, posterior chamber, plaque in one eye only
# [4] = in vivo; details: rabbit
# [5] = in vivo; details: rabbit; remark: listed apart in the source
# [6] = rabbit, in vivo
# [7] = rabbit, in vivo; remark: listed apart in the source
compound,measurement,setting,value
CC[C@]1(O)C[C@H]2CN(CCc3c([nH]c4ccccc34)[C@@](C(=O)OC)(c3cc4c(cc3OC)N(C=O)[C@H]3[C@@](O)(C(=O)OC)[C@H](OC(C)=O)[C@]5(CC)C=CCN6CC[C@]43[C@@H]65)C2)C1 [Vincristine],IC50,[1],2 to 3 ng/mL
"CN(Cc1cnc2nc(N)nc(N)c2n1)c1ccc(C(=O)N[C@@H](CCC(=O)O)C(=O)O)cc1 [MTX, methotrexate]","Drug level, LE PC",[2]; 1 wk,0 ng/mL
same,"Drug level, LE PC",[2]; 2 wks,0 ng/mL
same,"Drug level, LE PC",[2]; 3 wks,0 ng/mL
same,"Drug level, LE PC",[2]; 4 wks,0 ng/mL
same,"Drug level, LE PC",[2]; 5 wks,0 ng/mL
same,"Drug level, LE PC",[2]; 6 wks,0 ng/mL
same,concentration at 168 h,"[2]; rabbit, posterior chamber of eye, right eye, 1 wk, microcapsule, read-out: Drug level, RE PC",800 ng/mL
same,concentration at 336 h,"[2]; rabbit, posterior chamber of eye, right eye, 2 wks, microcapsule, read-out: Drug level, RE PC",1200 ng/mL
same,concentration at 504 h,"[2]; rabbit, posterior chamber of eye, right eye, 3 wks, microcapsule, read-out: Drug level, RE PC",1400 ng/mL
same,concentration at 672 h,"[2]; rabbit, posterior chamber of eye, right eye, 4 wks, microcapsule, read-out: Drug level, RE PC",700 ng/mL
same,concentration at 840 h,"[2]; rabbit, posterior chamber of eye, right eye, 5 wks, microcapsule, read-out: Drug level, RE PC",1000 ng/mL
same,concentration at 1008 h,"[2]; rabbit, posterior chamber of eye, right eye, 6 wks, microcapsule, read-out: Drug level, RE PC",900 ng/mL
same,"Drug level, LE PC",[3]; 1 mo,0 ng/mL
same,"Drug level, LE PC",[3]; 2 mos,0 ng/mL
same,"Drug level, LE PC",[3]; 3 mos,0 ng/mL
same,concentration at 720 h,"[3]; rabbit, posterior chamber of eye, right eye, 1 mo, plaque, read-out: Drug level, RE PC",1500 ng/mL
same,concentration at 1440 h,"[3]; rabbit, posterior chamber of eye, right eye, 2 mos, plaque, read-out: Drug level, RE PC",4000 ng/mL
same,concentration at 2160 h,"[3]; rabbit, posterior chamber of eye, right eye, 3 mos, plaque, read-out: Drug level, RE PC",2000 ng/mL
"C[C@]12CCC(=O)C=C1CC[C@@H]1[C@@H]2[C@@H](O)C[C@@]2(C)[C@H]1CC[C@]2(O)C(=O)CO [Hydrocortisone, hydrocortisone]",concentration at 168 h,[4],1300 ng/mL
same,concentration at 336 h,[4],2000 ng/mL
same,concentration at 504 h,[4],2400 ng/mL
same,concentration at 672 h,[4],1100 ng/mL
same,concentration at 840 h,[4],900 ng/mL
same,concentration at 1008 h,[4],2000 ng/mL
same,concentration at 720 h,[5],1300 ng/mL
same,concentration at 1440 h,[5],1900 ng/mL
same,concentration at 2160 h,[5],2300 ng/mL
same,"Drug level, RE PC",[6]; 10080 min,0 ng/mL
same,"Drug level, RE PC",[6]; 20160 min,0 ng/mL
same,"Drug level, RE PC",[6]; 30240 min,0 ng/mL
same,"Drug level, RE PC",[6]; 40320 min,0 ng/mL
same,"Drug level, RE PC",[6]; 50400 min,0 ng/mL
same,"Drug level, RE PC",[6]; 60480 min,0 ng/mL
same,"Drug level, RE PC",[7]; 43200 min,0 ng/mL
same,"Drug level, RE PC",[7]; 86400 min,0 ng/mL
same,"Drug level, RE PC",[7]; 129600 min,0 ng/mL

# — patent US5164188A, “Biodegradable ocular implants” (Visionex, Inc., priority 1989, dated 1992)
